Measurements as given in patent US6949648B2, “Condensed pyrazole derivatives, process for producing the same and use thereof” (Takeda Pharmaceutical Company Limited, priority 2000, dated 2005).
Like-named read-outs stand apart in the source and are kept apart here. Marks after values point to notes of the source that are not given here.

Columns and labels:
[1] = molecular target: T1, human COX-1 (Homo sapiens, UniProt P23219); experiment: Determination of COX-1 inhibitory activity (microsome fraction, chemiluminescence); assay type: biochemical; conditions: microsome fraction 40 μg, arachidonic acid, 37° C. 25 minutes preincubation; read-out: Repression rate IC50 (μM) COX-1
T1 construct: made in house; host or cells: Sf-21 insect cells (recombinant baculovirus BAC-COX1, pFASTBAC1); microsome fraction
Description: A 1.8 kb DNA fragment containing human COX-1 cDNA (FASEB J., vol. 5 (9), p. 2304-2312 (1991)) prepared by the PCR method was inserted into plasmid pFASTBAC1 (CIBCOBRL) to obtain a plasmid pFBCOX1.
Using the plasmid pFBCOX1 and BAC-TO-BAC Baculovirus Expression System (GIBCOBRL), a virus stock BAC-COX1 of the recombinant baculovirus was prepared.
Sf-21 cells were inoculated in 125 mL of Sf-900 II SFM medium (GIBCOBRL) at a concentration of 1×10^6 cells/mL, and the medium was incubated at 27° C. for 24 hours. 0.75 mL of the virus stock BAC-COX1 of the recombinant baculovirus was added thereto, and the mixture was incubated further for 72 hours. The cells were separated from the medium by centrifugation (3000 rpm, 10 min), and washed with PBS twice. The cells were suspended in 10 mL of a Lysis buffer (0.1M Tris-HCl (pH 7.4), 5 mM EDTA), and were treated with a homogenizer (POLYTRON) three times at 20000 rpm for 20 seconds so that the cells were crushed. The supernatant obtained after centrifugation (2000 rpm, 10 minutes) was further centrifuged (40000 rpm, 45 minutes) to give a precipitate, which was resuspended in a Lysis buffer (0.1M Tris-HCl (pH 7.4), 5 mM EDTA), and the suspension was stored at −80° C.
(§1) Determination of COX-1 and COX-2 Inhibitory Activities
(§2) To a mixture of 20 μL of a reaction buffer previously concentrated 10 times (1M Tris-HCl (pH8.0), 50 mM EDTA, 1.0% Tween 20, 50 mM luminol, 100 μM hematin), 20 μL of the microsome fractions (COX-1: 40 μg, COX-2: 20 μg), and 55 μL of distilled water, a sample compound dissolved in DMF (5 μL) was added, and the mixture was left at 37° C. for 25 minutes. The reaction was started by the addition of 20 μM arachidonic acid (100 μL), and chemiluminescence amount during the 10-second period after the addition of arachidonic acid was determined by the use of Lumistar (BMG Lab technologies, GmbH). The inhibition rate was calculated, regarding that the enzyme activity when DMF ([…]) was added was 100%, and the enzyme activity when 4 mM flurbiprofen (5 μL) was added was 0%.

[2] = molecular target: T2, human COX-2 (Homo sapiens, UniProt P35354); experiment: Determination of COX-2 inhibitory activity (microsome fraction, chemiluminescence); assay type: biochemical; conditions: microsome fraction 20 μg, arachidonic acid, 37° C. 25 minutes preincubation; read-out: Repression rate IC50 (μM) COX-2
T2 construct: made in house; host or cells: Sf-21 insect cells (recombinant baculovirus BAC-COX2, pFASTBAC1); microsome fraction
T2 sequence (P35354 18-604): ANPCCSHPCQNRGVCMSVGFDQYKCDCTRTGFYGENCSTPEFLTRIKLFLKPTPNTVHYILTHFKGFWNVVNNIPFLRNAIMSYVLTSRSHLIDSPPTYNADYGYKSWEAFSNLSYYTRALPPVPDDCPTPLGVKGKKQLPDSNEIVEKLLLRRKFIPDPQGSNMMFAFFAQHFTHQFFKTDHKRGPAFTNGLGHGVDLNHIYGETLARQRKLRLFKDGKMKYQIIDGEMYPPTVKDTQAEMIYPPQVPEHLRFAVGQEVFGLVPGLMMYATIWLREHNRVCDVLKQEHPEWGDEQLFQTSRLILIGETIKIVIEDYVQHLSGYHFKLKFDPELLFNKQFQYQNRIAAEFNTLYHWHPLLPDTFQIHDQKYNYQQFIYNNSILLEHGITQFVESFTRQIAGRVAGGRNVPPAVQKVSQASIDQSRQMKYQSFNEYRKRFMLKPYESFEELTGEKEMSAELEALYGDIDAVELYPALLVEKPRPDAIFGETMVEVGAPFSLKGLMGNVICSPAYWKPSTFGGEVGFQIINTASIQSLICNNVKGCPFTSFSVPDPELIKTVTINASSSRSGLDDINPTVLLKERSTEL
Description: A 1.8 kb DNA fragment containing human COX-2 cDNA (Proc. Natl. Acad. Sci. U.S.A., vol. 89 (16), p. 7384-7388 (1992)) prepared by the PCR method was inserted into plasmid pFASTBAC1 (CIBCOBRAL) to obtain a plasmid pFBCOX2.
Using the plasmid pFBCOX2 and BAC-TO-BAC Baculovirus Expression System (GIBCOBRAL), a virus stock BAC-COX2 of the recombinant baculovirus was prepared.
Sf-21 cells were inoculated in 125 mL of LSf-900 II SFM medium (GIBCOBRAL) at a concentration of 1×10^6 cells/mL, and the medium was incubated at 27° C. for 24 hours. 0.75 mL of the virus stock BAC-COX2 of the recombinant baculovirus was added thereto, and was incubated further for 72 hours. The cells were separated from the medium by centrifugation (3000 rpm, 10 min), and washed with PBS twice. The cells were suspended in 10 mL of a Lysis buffer (0.1M Tris-HCl (pH 7.4), 5 mM EDTA), and were treated with a homogenizer (POLYTRON), three times at 20000 rpm for 20 seconds so that the cells were crushed. The supernatant thus obtained after centrifugation (2000 rpm, 10 minutes) was further centrifuged (40000 rpm, 45 minutes) to obtain a precipitate, which was resuspended in a Lysis buffer (0.1M Tris-HCl (pH 7.4), 5 mM EDTA), and the suspension was stored at −80° C.
as §1, §2

[3] = system: gastric mucosa; experiment: Disorder of gastric mucosa; assay type: in vivo, SD rats; conditions: stomach, 1000 mg/kg orally, fasted rats, 6 hours after dosing
Description: Disorder of Gastric Mucosa
Male SD origin male-rats (7 weeks old, CLEA Japan) were used. After 24 hours from the termination of food supply, samples were orally administered (5 mL/kg, b.w.). After 5.5 hours, Evan's Blue (0.5% Evan's Blue/saline) was injected intravenously (1 mL/rat) under no anesthesia. After 30 minutes from the shot, the stomach (with esophagus and duodenum of 1.5 to 2 cm length) was removed by celiotomy, and subsequently, the esophagus terminal was closed with a clip, and a 8 mL of 1% formalin solution was injected into the stomach through the duodenum, which was also closed with a clip after the injection. The stomach was left contacting with the 1% formalin solution for more than 10 minutes, and subsequently cut open from duodenum along the greater curvature of stomach. The stomach was washed and spread on a filter paper, and the length of each of the spots dyed by Evan's Blue (hemorrhagic portion: mucosal ablation to ulcer) was measured under a stereomicroscope, and the total length (mm) was calculated by a counter and recorded.

[4] = system: mucosa of small intestine; experiment: Disorder of mucosa of small intestine; assay type: in vivo, SD rats; conditions: 300 mg/kg orally, freely fed rats, 6 hours after dosing
Description: Disorder of Mucosa of Small Intestine Male SD origin male-rats (7 weeks old, CLEA Japan) were used. To the rats freely fed, samples were administered orally (5 mL/kg, b.w.). After 5.5 hours from the administration, Evan's Blue (0.5% Evan's Blue/saline) was injected (1 mL/rat) intravenously under no anesthesia. After 30 minutes from the shot, the intestine was removed by celiotomy and the area thereof facing mesentery was cut open. After removal of intestinal content, the spots in the intestine dyed by Evan's Blue were measured under a stereomicroscope, and the total length (mm) of the spots was determined by a counter and recorded.

[5] = system: carrageenin edema of right hind limb plantar; experiment: Anti-inflammatory activity, carrageenin edema method; assay type: in vivo, SD-rats; conditions: po, 10 mg/kg orally
Description: Anti-Inflammatory Activity
Male SD-rats (6 weeks old, CLEA Japan) were used (1 group, n=6). The Carrageenin edema method was performed according to the method of Winter et. al., (Proc. Soc. Exp. Biol. Med., vol. 111, p. 544-547, 1962). After the volume of right hind limb plantar of the rat was determined, a sample was orally administered (1.0 mL, b.w.), and immediately water was orally administered in an amount of 5 mL/rat. Meanwhile, only the solvent of the sample was orally administered to rats in control. After 1 hour, a solution of 1% carrageenin in saline (0.05 mL) was injected into the right hind limb plantar subcutaneously to induce edema. After 2 and 3 hours later from the injection, volumes of the right hind limb plantar were determined. The repression rate (%) of the sample was calculated by comparing the difference of the volumes of the plantar before the carrageenin shot and 2 and 3 hours after the shot between the sample groups and the control groups.

[6] = system: acetic acid induced rising and stretching; experiment: Analgesic activity, acetic acid rising method; assay type: in vivo, ICR-mice; conditions: po, 20 min; 10 mg/kg orally, 30 minutes before 0.6% acetic acid i.p.; number of rising and stretching in 20 minutes; read-out: Repression rate (%) Dosage 10 mg/kg
Description: Analgesic Activity Acetic Acid Rising Method Male ICR-mice (5 weeks old, CLEA Japan) were used (1 group, n=10), and a sample was orally administered (0.2 mL/10 g, b.w.). After 30 minutes, 0.6% acetic acid solution was injected to mice intraperitoneally (0.1 mL/10 g, b.w.), and the mice were immediately transferred into an observation cage made of a transparent acrylic resin. The number of rising and stretching during the following period of 20 minutes was counted. The repression rate (%) was calculated by comparing the average numbers between the sample groups and the control groups.

[7] = system: yeast-induced pyrexia; experiment: Antipyretic activity in yeast-induced pyrexia; assay type: in vivo, SD rats; conditions: 10 mg/kg orally; maximum difference in body temperature vs control over 6 hours
Description: Antipyretic Activity in Yeast-Induced Pyrexia Antipyretic activity was determined using male SD origin male-rats (7 weeks old, CLEA Japan, 1 group: n=6), according to the method of winter et. al. (J. Pharmacol. Exp. Ther., vol. 138, p. 405, 1963). Before 16 hours from measurement of body temperature, a suspension of 15% yeast in saline was injected subcutaneously (10 mL/kg, b.w.) into the rats to induce fever, and simultaneously supply of food was terminated while water was made available all the time. Each of the rats was raised separately. After 16 hours from the yeast shot, a thermistor terminal was inserted at an about 4 cm depth into rectum every hour, and the body temperatures after 30 seconds were recorded. After 18 hours, rats developing fevers consistently were selected, and a sample was orally administered to the rats (5 mL/kg, b.w.), while to the control, only the solvent was administered. After the administration, body temperatures were measured every hour for a period of 6 hours, and the maximum difference in body temperature between the rats in the sample group and in the control group were determined as Δ (° C.).

[8] = system: adjuvant arthritis; experiment: Anti-adjuvant-arthritic activity; assay type: in vivo, SD rats; conditions: 10 mg/kg orally once a day for 14 days; volume of left hind limb (not injected); day of reading not given
Description: Anti-Adjuvant-Arthritic Activity
Male SD origin male-rats (6 weeks old, CLEA Japan, 1 group: n=7) were used. The adjuvant arthritis method was conducted according to the method of Newbould B. B. et. al., (Brit. J. Pharmacol. Chemother., vol. 21, p. 127, 1963). Complete Freund's adjuvant (a suspension of killed tubercule bacillus in liquid paraffin at a concentration of 0.5%, 0.05 mL) was injected into the right hind limb footpad intracutaneouly to induce multiple arthritis. Samples were administered orally (10 mg/kg, b.w.), once a day for 14 days from the day before the injection day 0 to day 13. Volume of the left hind limb (not injected) was determined by the foot-volume measurement apparatus manufactured by Ugo Basile, on the day just before the adjuvant shot (Day 0), Day 10 and Day 14, and repression rate (%) was calculated comparing the values between the sample group and the control group.

T1 sequence (P23219 24-599): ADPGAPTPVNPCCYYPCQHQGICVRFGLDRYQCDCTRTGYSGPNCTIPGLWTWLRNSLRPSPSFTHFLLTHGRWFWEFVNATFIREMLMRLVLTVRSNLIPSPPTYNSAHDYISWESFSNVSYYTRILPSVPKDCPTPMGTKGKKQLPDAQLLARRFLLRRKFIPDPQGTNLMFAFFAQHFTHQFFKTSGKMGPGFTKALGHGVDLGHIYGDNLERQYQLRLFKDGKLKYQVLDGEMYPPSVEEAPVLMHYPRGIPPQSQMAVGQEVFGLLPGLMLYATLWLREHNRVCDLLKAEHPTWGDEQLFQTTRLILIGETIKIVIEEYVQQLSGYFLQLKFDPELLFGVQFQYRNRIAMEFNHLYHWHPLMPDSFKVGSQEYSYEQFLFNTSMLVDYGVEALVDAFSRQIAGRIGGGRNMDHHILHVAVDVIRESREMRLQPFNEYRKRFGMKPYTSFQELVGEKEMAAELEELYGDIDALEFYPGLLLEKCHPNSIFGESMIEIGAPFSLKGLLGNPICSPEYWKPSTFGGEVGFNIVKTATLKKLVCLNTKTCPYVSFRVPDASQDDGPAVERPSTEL

| Structure (SMILES) | IC50 [1] [µM] | IC50 [2] [µM] | Total length of dyed spots (mm) [3] | Total length of dyed spots (mm) [4] | inhibition in vivo at 10 mg/kg ([5]; 2 hr after carrageenin injection, read-out: Repression rate (%) Dosage 10 mg/kg 2 hr later) [%] | inhibition in vivo at 10 mg/kg ([5]; 3 hr after carrageenin injection, read-out: Repression rate (%) Dosage 10 mg/kg 3 hr later) [%] | inhibition in vivo at 10 mg/kg [6] [%] | Δ (° C.) Dosage 10 mg/kg [7] | Repression rate (%) Dosage 10 mg/kg [8] | melting point [°C] |
| --- | --- | --- | --- | --- | --- | --- | --- | --- | --- | --- |
| Cc1nn(-c2ccccn2)c2[nH]c3cc(F)c(F)cc3c(=O)c12.O [Example 2-92, 6,7-Difluoro-3-methyl-1-(2-pyridinyl)-1,9-dihydro-4H-pyrazolo[3,4-b]quinolin-4-one monohydrate] | 0.677 | 0.465 | 0 (1000 mg/kg) mm | 0 (300 mg/kg) mm | – | – | – | – | – | – |
| Cc1nn(-c2ccccn2)c2[nH]c3cc(F)c(F)cc3c(=O)c12 [Example 2-91, 6,7-Difluoro-3-methyl-1-(2-pyridinyl)-1,9-dihydro-4H-pyrazolo[3,4-b]quinolin-4-one] | – | – | 0 (1000 mg/kg) mm | – | 51 | 42 | 65 | 1.5** ° C. | 76** % | 274 to 277 |
